How the values were obtained:
[1] = Bone remodeling in mice given doxycycline in drinking water; type: in vivo; details: 0.5 mg/ml in drinking water; stated as established
Method: Tet-F6 and wild type animals are assessed for bone mass by in vivo DEXA analysis at weekly intervals following the turning on of the transgene or the overiectomy. At the end of the 4-6 week period, both groups of animals are sacrificed and the following determinations made: a) whole body and uterine and mammary gland weights, b) length of the long bones and the width between the periosteal and endosteal bone, c) osteoblastogenesis and osteoclastogenesis in ex vivo cultures of bone marrow cells, d) prevalence of osteoblast/osteocyte and osteoclast apoptosis in sections of vertebrae, e) rate of bone formation and resorption by dynamic histomorphometry and f) compression strength of the vertebrae. An intraperitoneal injection of 30ng/g body weight of oxytetracycline-hydrochloride is administered 8 days and 2 days before sacrificing the animals for the dynamic histomorphometry analysis. It is important to note that the TET ON system is 100-1000 fold less sensitive to tetracycline than it is to doxycycline. […] Therefore, this maneuver should not influence the expression of the transgene, which at this stage will have been turned on with doxycycline.

ERK1/2 = test: ERK phosphorylation in MLO-Y4 cells (Western blot); type: cell-based; details: MLO-Y4 cells
Method: Western blot analysis. The phosphorylation status of ERK1/2 was analyzed by immunoblotting using a mouse monoclonal antibody recognizing tyrosine phosphorylated ERK1/2, or a rabbit polyclonal antibody recognizing total ERK1/2, followed by incubation with either an anti-mouse or an anti-rabbit antibody conjugated with horseradish peroxidase (Santa Cruz Biotechnology).

[2] = tested on: HeLa cells transfected with the vector without receptor (empty vector, ev); test: Etoposide-induced apoptosis in HeLa cells transfected with empty vector; details: 10^−12M to 10^−8 M
ERβ = ERβ (Homo sapiens, UniProt Q92731); test: Etoposide-induced apoptosis in HeLa cells transfected with ERβ; details: HeLa transfected with ERβ
[3] = tested on: embryonic fibroblasts derived from Src−/− mice; test: Apoptosis in embryonic fibroblasts from Src−/− mice; type: cell-based; details: ER- and AR-expressing, also lack yes and Fyn
Method: Cell lysates were obtained and proteins were analyzed by Western blot analysis using anti-ERK1/2 or anti-phospho-ERK1/2 (p-ERK1/2) antibodies. […] After 30 min, etoposide was added and apoptosis was assayed 6 hours later as in FIG. 1B. […] RT-PCR was performed as described in the experimental procedures. C-E. HeLa cells were transfected with Nuc-EGFP and with expression vectors encoding the full length ERα or its E domain, or the AR alone (C, left panel) or together with a dn MEK (C, right panel); a Src mutant lacking the kinase activity (Src K^−), a Src mutant lacking the SH2 domain (Src ΔSH2), or a Src mutant lacking the SH3 domain (Src ΔSH3) (D); or with ERα together with wt Shc, or the dn Shc mutants Y239F/Y240F/Y317F (Shc FFF), Y317F (Shc YYF) or Y239F/Y240F (Shc FFY) (E). Bars represent means±SD of triplicate determinations. *p<0.05 versus cells cultured without steroids, by ANOVA.
Quantification of apoptotic cells in vitro. Apoptotic cells were quantified either by trypan blue staining or by direct visualization of changes in nuclear morphology (in the case of transfected HeLa cells), as previously described (Plotkin,L. et al. (1999). J.
RT-PCR analysis of the ERs and AR in embryonic fibroblasts. […]

[4] = tested on: osteocytic cell line MLO-Y4; test: Apoptosis of MLO-Y4 osteocytic cells (trypan blue); type: cell-based
[5] = tested on: lactoferrin mRNA in the uterus; details: WT mice, E2 20 ng/g body weight for 28 days; stated as known; cited from earlier work
[6] = tested on: vertebral osteoblast and osteocyte apoptosis; test: Osteoblast and osteocyte apoptosis in vertebrae of ovariectomized mice (TUNEL); type: in vivo; details: data not shown
[7] = tested on: calvaria-derived murine osteoblastic cells; test: Apoptosis of calvaria-derived osteoblastic cells (trypan blue); details: 10^−8 M steroid

Chain of ERβ (Q92731 whole entry, species assumed): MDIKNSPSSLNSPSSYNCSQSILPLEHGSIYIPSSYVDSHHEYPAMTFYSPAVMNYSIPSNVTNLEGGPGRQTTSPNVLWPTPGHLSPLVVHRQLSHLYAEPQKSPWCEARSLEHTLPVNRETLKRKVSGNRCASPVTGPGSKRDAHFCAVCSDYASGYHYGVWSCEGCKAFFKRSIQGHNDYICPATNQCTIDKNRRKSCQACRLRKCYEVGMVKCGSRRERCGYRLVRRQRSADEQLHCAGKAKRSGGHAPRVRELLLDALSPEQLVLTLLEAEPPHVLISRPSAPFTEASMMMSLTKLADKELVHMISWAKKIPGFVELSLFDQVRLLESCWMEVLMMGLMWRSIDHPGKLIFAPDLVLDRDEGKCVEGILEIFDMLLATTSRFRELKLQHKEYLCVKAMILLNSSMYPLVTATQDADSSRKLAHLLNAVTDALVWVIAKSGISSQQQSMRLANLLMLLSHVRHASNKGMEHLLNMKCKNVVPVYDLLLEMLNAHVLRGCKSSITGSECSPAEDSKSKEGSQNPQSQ

effect on bone remodeling [1] | SMILES | time of maximal effect on phosphorylation of ERKs (ERK1/2) [min] | effect on etoposide-induced apoptosis [2] | prevention of etoposide-induced apoptosis (ERβ) | anti-apoptotic effect in Src−/− fibroblasts (unlike Src+/+ wild type controls) [3] | prevention of apoptosis induced by etoposide, dexamethasone or TNFα ([4]; 10^−8 M steroid) | dose-dependent inhibition of etoposide-induced apoptosis compared with calvaria cells ([4]; not shown) | increase of lactoferrin mRNA in the uterus [5] | prevention of the ovariectomy-induced increase in osteoblast and osteocyte apoptosis [6] | prevention of apoptosis induced by etoposide, dexamethasone or TNFα [7]
no effect on bone remodeling | C[C@H]1c2cccc(O)c2C(=O)C2=C(O)[C@]3(O)C(=O)C(C(N)=O)=C(O)[C@@H](N(C)C)[C@@H]3[C@@H](O)[C@@H]21 [doxycycline] | – | – | – | – | – | – | – | – | –
– | C[C@]12CC[C@@H]3c4ccc(O)cc4CC[C@H]3[C@@H]1CC[C@@H]2O [E2, 17β-estradiol] | 5 | Neither E2 nor DHT (10^−12M to 10^−8 M) had an effect | prevented apoptosis in a dose-dependent manner | unresponsive | prevented apoptosis | identical results | approximately 5 fold | prevented | prevented apoptosis
